26 compounds from patent US8669249B2, “Poly (ADP-ribose) polymerase (PARP) inhibitors” (Takeda Pharmaceutical Company Limited, priority 2009, dated 2014) can be followed below.

For one assay, the target named is T1, PARP (Homo sapiens, UniProt P09874).
T1 construct: purchased Trevigen 4684-096-K HT (kit); 4684-096-01 (PARP enzyme)
The assay is described as follows: PARP ELISA (ELISA-based colorimetric PARP/Apoptosis Assay kit, Trevigen). It is filed as biochemical. The conditions noted are these: pIC50=-log10 IC50, IC50 in mol/L; inhibition of PARP catalytic activity. On the procedure:
Inhibition Constant (IC50) from PARP ELISA
After 10 minutes of catalysis the reaction is quenched by solvent aspiration followed by irrigation of the assay wells 4 times with phosphate buffered saline (PBS) containing 0.1% t-Octylphenoxypolyethoxyethanol (Triton® X-100). Mouse Anti-poly ADP ribose (PAR) monoclonal antibody, goat antimouse immunoglobulin G (IgG)-horse radish peroxidase (HRP) conjugate and HRP substrate are added according to the manufacture's specifications to generate a colorimetric signal proportional to PARP catalytic activity.
A general note: ELISA stands for enzyme-linked immunosorbent assay.

For assay [1], the target named is T2, catalytic domain of Human PARP (Homo sapiens, UniProt P09874).
T2 construct: The catalytic domain of Human PARP was cloned and prepared; made in house
In words: Biacore surface plasmon resonance affinity assay. It is filed as binding. The conditions noted are these: pKD=-log10 KD, KD in mol/L; Biacore T100, 25° C.; read-out: pKD (converted). The method, boiled down: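 Human PARP catalytic domain amine-coupled to CM5 chip; compounds run as 2-fold series in HBS-P with 1% DMSO, 0.5 mM TCEP, 5 mM MgCl2.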
For orientation: In SPR one partner is held on a chip, and binding of the other changes the refractive index at the surface.

T1 sequence (P09874 whole entry): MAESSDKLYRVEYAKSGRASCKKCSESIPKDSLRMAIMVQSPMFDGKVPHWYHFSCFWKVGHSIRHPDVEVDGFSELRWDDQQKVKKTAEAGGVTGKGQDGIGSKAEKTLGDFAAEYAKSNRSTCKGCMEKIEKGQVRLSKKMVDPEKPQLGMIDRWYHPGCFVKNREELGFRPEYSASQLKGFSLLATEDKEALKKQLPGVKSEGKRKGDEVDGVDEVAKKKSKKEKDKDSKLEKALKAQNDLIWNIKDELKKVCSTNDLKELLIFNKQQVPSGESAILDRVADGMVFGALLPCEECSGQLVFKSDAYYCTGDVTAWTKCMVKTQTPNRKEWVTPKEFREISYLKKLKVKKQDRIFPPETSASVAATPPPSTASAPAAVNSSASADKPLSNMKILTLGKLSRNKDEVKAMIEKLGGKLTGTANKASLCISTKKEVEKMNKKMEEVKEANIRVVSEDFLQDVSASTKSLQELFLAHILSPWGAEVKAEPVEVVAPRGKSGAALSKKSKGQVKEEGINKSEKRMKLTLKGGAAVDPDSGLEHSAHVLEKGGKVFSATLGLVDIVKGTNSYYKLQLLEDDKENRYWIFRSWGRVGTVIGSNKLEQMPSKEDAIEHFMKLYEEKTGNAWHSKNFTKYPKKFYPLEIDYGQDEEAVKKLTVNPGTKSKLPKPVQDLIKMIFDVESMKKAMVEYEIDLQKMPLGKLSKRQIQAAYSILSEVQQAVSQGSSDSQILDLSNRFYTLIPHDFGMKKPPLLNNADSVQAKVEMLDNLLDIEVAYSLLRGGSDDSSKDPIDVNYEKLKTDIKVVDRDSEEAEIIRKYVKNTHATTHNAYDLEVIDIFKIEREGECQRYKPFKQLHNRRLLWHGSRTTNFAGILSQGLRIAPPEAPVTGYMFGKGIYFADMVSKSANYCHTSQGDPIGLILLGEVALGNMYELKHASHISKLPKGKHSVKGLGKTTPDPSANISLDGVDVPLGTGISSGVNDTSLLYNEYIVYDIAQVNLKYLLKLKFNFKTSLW
T2 sequence (P09874 788-1014 limits assumed): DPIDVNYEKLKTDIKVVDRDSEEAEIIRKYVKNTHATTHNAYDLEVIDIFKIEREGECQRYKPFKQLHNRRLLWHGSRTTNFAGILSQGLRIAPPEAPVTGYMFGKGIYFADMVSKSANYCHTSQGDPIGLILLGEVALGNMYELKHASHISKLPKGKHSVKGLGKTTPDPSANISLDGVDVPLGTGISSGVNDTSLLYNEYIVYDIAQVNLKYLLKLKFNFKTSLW

As usually defined, the IC50 is the point on the concentration scale where inhibition reaches its midpoint. Regarding `CC1Oc2ccc(OC3CCN(c4ccc(C(=O)NC5CC5)cc4)CC3)cc2NC1=O` (centres unmarked) [Compound 397, N-Cyclopropyl-4-(4-(2-methyl-3-oxo-3,4-dihydro-2H-benzo[b][1,4]oxazin-6-yloxy)piperidin-1-yl)benzamide], at PARP, the IC50 is over 200 nM. At PARP, `CCNC(=O)c1ccc(N2CCC(Oc3ccc4c(c3)NC(=O)C(C)O4)CC2)cc1` (centres unmarked) [Compound 396, N-Ethyl-4-(4-(2-methyl-3-oxo-3,4-dihydro-2H-benzo[b][1,4]oxazin-6-yloxy)piperidin-1-yl)benzamide] gave an IC50 of over 200 nM. On the same count and under the same terms, the result for `CCOC(=O)c1ccc(N2CCN(Cc3cc4c(cc3F)OC(C)C(=O)N4)CC2)cc1` (centres unmarked) [Compound 333, Ethyl 4-(4-((7-fluoro-2-methyl-3-oxo-3,4-dihydro-2H-benzo[b][1,4]oxazin-6-yl)methyl)piperazin-1-yl)benzoate] reads over 200 nM; that for `CC1Oc2c(F)cc(CN3CCN(c4ccc(C(=O)NC5CC5)cn4)CC3)cc2NC1=O` (centres unmarked) [Compound 317, N-Cyclopropyl-6-(4-((8-fluoro-2-methyl-3-oxo-3,4-dihydro-2H-benzo[b][1,4]oxazin-6-yl)methyl)piperazin-1-yl)nicotinamide], 50.1 nM.

`Cc1c(CN2CC=C(c3ccc(Cl)cc3)CC2)ccc2c1NC(=O)C(C)O2` (centres unmarked) [Compound 326, 6-((4-(4-Chlorophenyl)-5,6-dihydropyridin-1(2H)-yl)methyl)-2,5-dimethyl-2H-benzo[b][1,4]oxazin-3(4H)-one] gave an IC50 against PARP of over 200 nM. Still for that read-out and setting: the result for `CC1Oc2cc(F)c(CN3CCN(c4ccc(Cl)cc4)CC3)cc2NC1=O` (centres unmarked) [Compound 330, 6-((4-(4-Chlorophenyl)piperazin-1-yl)methyl)-7-fluoro-2-methyl-2H-benzo[b][1,4]oxazin-3(4H)-one] reads over 200 nM; that for `CC(C)NC(=O)c1ccc(N2CCC(Cc3ccc4c(c3)NC(=O)C(C)O4)CC2)cc1` (centres unmarked) [Compound 391, N-Isopropyl-4-(4-((2-methyl-3-oxo-3,4-dihydro-2I-benzo[b][1,4]oxazin-6-yl)methyl)piperidin-1-yl)benzamide], over 200 nM; that for `CCNC(=O)c1ccc(N2CCN(Cc3cc4c(c(-c5ccccc5)c3)OC(C)C(=O)N4)CC2)cc1` (centres unmarked) [Compound 349, N-Ethyl-4-(4-((2-methyl-3-oxo-8-phenyl-3,4-dihydro-2H-benzo[b][1,4]oxazin-6-yl)methyl)piperazin-1-yl)benzamide], over 200 nM. Same read-out and setting: the result for `C=CCc1cc(CN2CCN(c3ccc(C(=O)NCC)cc3)CC2)cc2c1OC(C)C(=O)N2` (centres unmarked) [Compound 356, 4-(4-((8-Allyl-2-methyl-3-oxo-3,4-dihydro-2H-benzo[b][1,4]oxazin-6-yl)methyl)piperazin-1-yl)-N-ethylbenzamide] reads 79.4 nM; that for `CC(C)(C)OC(=O)N1CCN(Cc2ccc3c(c2)NC(=O)CO3)CC1` [Compound 357, tert-Butyl 4-((3-oxo-3,4-dihydro-2H-benzo[b][1,4]oxazin-6-yl)methyl)piperazine-1-carboxylate], over 200 nM. At PARP, `CC(C)NC(=O)c1ccc(N2CCN(Cc3cc(Cl)c4c(c3)NC(=O)C(C)O4)CC2)cc1` (centres unmarked) [Compound 310, 4-(4-((8-Chloro-2-methyl-3-oxo-3,4-dihydro-2H-benzo[b][1,4]oxazin-6-yl)methyl)piperazin-1-yl)-N-isopropylbenzamide] gave an IC50 of 31.6 nM.

On PARP, `CC1Oc2cc(F)c(CN3CCC(c4ccc(Cl)cc4)CC3)cc2NC1=O` (centres unmarked) [Compound 332, 6-((4-(4-Chlorophenyl)piperidin-1-yl)methyl)-7-fluoro-2-methyl-2H-benzo[b][1,4]oxazin-3(4H)-one] gave an IC50 of over 200 nM.

Regarding `CC(=O)Nc1ccc(N2CCN(Cc3ccc4c(c3)NC(=O)C(C)O4)CC2)cc1` (centres unmarked) [Compound 245, N-(4-(4-((2-Methyl-3-oxo-3,4-dihydro-2H-benzo[b][1,4]oxazin-6-yl)methyl)piperazin-1-yl)phenyl)acetamide], at PARP, the IC50 was at least 126 nM.

For the compound `CCOC(=O)c1ccc(N2CCN(Cc3cc(F)c4c(c3)NC(=O)C(C)O4)CC2)nc1` (centres unmarked) [Compound 312, Ethyl 6-(4-((8-fluoro-2-methyl-3-oxo-3,4-dihydro-2H-benzo[b][1,4]oxazin-6-yl)methyl)piperazin-1-yl)nicotinate], the IC50 against PARP was over 200 nM. The same measure, in the same setting: then `CC1Oc2c(Cl)cc(CN3CCC(c4ccc(Cl)cc4)CC3)cc2NC1=O` (centres unmarked) [Compound 165, 8-Chloro-6-((4-(4-chlorophenyl)piperidin-1-yl)methyl)-2-methyl-2H-benzo[b][1,4]oxazin-3(4H)-one], with at least 126 nM; and `CC1Oc2ccc(CN3CCN(c4ccc(NC(=O)C5CC5)cc4)CC3)cc2NC1=O` (centres unmarked) [Compound 247, N-(4-(4-((2-methyl-3-oxo-3,4-dihydro-2H-benzo[b][1,4]oxazin-6-yl)methyl)piperazin-1-yl)phenyl)cyclopropanecarboxamide], with at least 126 nM. The same measure, in the same setting: the result for `CC1Oc2ccc(CN3CCN(c4ccc(C(=O)N(C)C)cc4)CC3)cc2NC1=O` (centres unmarked) [Compound 378, N,N-Dimethyl-4-(4-((2-methyl-3-oxo-3,4-dihydro-2H-benzo[b][1,4]oxazin-6-yl)methyl)piperazin-1-yl)benzamide] reads over 200 nM; that for `CCNC(=O)c1ccc(N2CCC(Cc3ccc4c(c3)NC(=O)C(C)O4)CC2)cc1` (centres unmarked) [Compound 393, N-Ethyl-4-(4-((2-methyl-3-oxo-3,4-dihydro-2H-benzo[b][1,4]oxazin-6-yl)methyl)piperidin-1-yl)benzamide], over 200 nM; that for `Cc1c(CN2CCC(c3ccc(Cl)cc3)CC2)ccc2c1NC(=O)C(C)O2` (centres unmarked) [Compound 327, 6-((4-(4-Chlorophenyl)piperidin-1-yl)methyl)-2,5-dimethyl-2H-benzo[b][1,4]oxazin-3(4H)-one], over 200 nM. As for `O=C1COc2ccc(C(=O)CN3CCC(c4ccccc4)CC3)cc2N1` [Compound 114, 6-(2-(4-Phenylpiperidin-1-yl)acetyl)-2H-benzo[b][1,4]oxazin-3(4H)-one], in assay [1], the Kd is 12600 to 79400 nM. Still for that read-out and setting: the result for `CC1Oc2ccc(CN(C)CC(=O)NCc3ccc(Cl)cc3)cc2NC1=O` (centres unmarked) [Compound 136, N-(4-Chlorobenzyl)-2-(methyl((2-methyl-3-oxo-3,4-dihydro-2H-benzo[b][1,4]oxazin-6-yl)methyl)amino)acetamide] reads 1260 to 10000 nM; that for `CN(C)C1CCN(C(=O)c2ccc3c(c2)NC(=O)CO3)CC1` [Compound 106, 6-(4-(Dimethylamino)piperidine-1-carbonyl)-2H-benzo[b][1,4]oxazin-3(4H)-one], at least 100000 nM; that for `O=C1COc2ccc(CCN3CCC(c4ccccc4)CC3)cc2N1` [Compound 125, 6-(2-(4-Phenylpiperidin-1-yl)ethyl)-2H-benzo[b][1,4]oxazin-3(4H)-one], 12600 to 79400 nM. Still for that read-out and setting: the result for `CC1Oc2ccc(CN3CCC(c4cccc(C(=O)O)c4)CC3)cc2NC1=O` (centres unmarked) [Compound 215, 3-(1-((2-Methyl-3-oxo-3,4-dihydro-2H-benzo[b][1,4]oxazin-6-yl)methyl)piperidin-4-yl)benzoic acid] reads at least 100000 nM. With `CC1Oc2ccc(CN3CCCc4ccccc43)cc2NC1=O` (centres unmarked) [Compound 82, 6-((3,4-Dihydroquinolin-1(2H)-yl)methyl)-2-methyl-2H-benzo[b][1,4]oxazin-3(4H)-one], the Kd in assay [1] was over 10000 nM. Same read-out and setting: the result for `O=C1COc2ccc(C(=O)N3CCOCC3)cc2N1` [Compound 109, 6-(Morpholine-4-carbonyl)-2H-benzo[b][1,4]oxazin-3(4H)-one] reads 1260 to 10000 nM.
